Source: US10703757B2, “Compounds and methods for CDK8 modulation and indications therefor” (Plexxikon Inc., priority 2016, dated 2020)

Legend:
[1] = tested on: CDK8 (TCF/LEF luciferase reporter in HCT116 cells); assay: Cell based TCF/LEF reporter assay (HCT116+TCF/LEF luciferase); details: Homo sapiens, HCT-116, 24 h
Method in brief: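 Luciferase readout was corrected for viability (CellTiter-Fluor) and scaled between DMSO high and 10 uM CCT251545 low controls, giving IC50 by nonlinear regression. Compounds, serially diluted, were incubated 24 h at 37 °C on HCT116 clones stably expressing a TCF/LEF-driven luciferase reporter.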

[2] = tested on: CDK8 (phosphorylation of STAT1 at serine 727 in A549 cells); assay: Cell based Phospho-STAT1 assay (IFNγ-stimulated A549 cells, AlphaLISA); details: Homo sapiens, A549, A549 cells, phospho-STAT1 after IFNγ stimulation
Method in brief: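 A549 cells given serial compound dilutions for 1 h at 37 °C, then stimulated with IFNγ at 10 ng/mL final for 30 min. Lysate STAT1 Ser727 phosphorylation measured by AlphaLISA; % inhibition vs stimulated/unstimulated DMSO controls, IC50 by nonlinear regression.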

Row | SMILES | IC50 [1] | IC50 [2]
1 | N#CC1CCC(c2nccn3ncc(-c4ccc(-c5cnn(CC6CCC6)c5)cc4)c23)CC1 (stereo not shown) [Compound P-0022, (1s,4s)-4-(3-(4-(1-(cyclobutylmethyl)-1H-pyrazol-4-yl)phenyl)pyrazolo[1,5-a]pyrazin-4-yl)cyclohexane-1-carbonitrile] | 0.1 to 100 nM | 0.1 to 100 nM
2 | Cc1ccc2cc(-c3cnn4ccnc(C5=CCC(C(N)=O)CC5)c34)ccc2n1 (stereo not shown) [Compound P-0153, 4-(3-(2-methylquinolin-6-yl)pyrazolo[1,5-a]pyrazin-4-yl)cyclohex-3-ene-1-carboxamide] | 0.1 to 100 nM | 0.1 to 100 nM
3 | CC(C)(C#Cc1nccn2ncc(-c3ccc(-c4cnn(CCC#N)c4)cc3)c12)C(N)=O [Compound P-0004, 4-(3-(4-(1-(2-cyanoethyl)-1H-pyrazol-4-yl)phenyl)pyrazolo[1,5-a]pyrazin-4-yl)-2,2-dimethylbut-3-ynamide] | 0.1 to 100 nM | 0.1 to 100 nM
4 | CS(=O)(=O)Nc1ccc(-c2cnn3ccnc(C4=CCC(C#N)CC4)c23)cc1 (stereo not shown) [Compound P-0045, N-(4-(4-(4-cyanocyclohex-1-en-1-yl)pyrazolo[1,5-a]pyrazin-3-yl)phenyl)methanesulfonamide] | 0.1 to 100 nM | 100 to 1000 nM
5 | Cc1ccc2cc(-c3cnc4[nH]ccc4c3C3=CCC(C#N)CC3)ccc2n1 (stereo not shown) [Compound P-0202, 4-(5-(2-methylquinolin-6-yl)-1H-pyrrolo[2,3-b]pyridin-4-yl)cyclohex-3-ene-1-carbonitrile] | 0.1 to 100 nM | 0.1 to 100 nM
6 | Cn1cc(-c2ccc(-c3cnn4ccnc(C5CCC(C(N)=O)CC5)c34)cc2)cn1 (stereo not shown) [Compound P-0247, 4-(3-(4-(1-methyl-1H-pyrazol-4-yl)phenyl)pyrazolo[1,5-a]pyrazin-4-yl)cyclohexane-1-carboxamide] | 0.1 to 100 nM | 0.1 to 100 nM
7 | COc1ccc2cc(-c3cnn4cccc(N5CCC6(CCNC6=O)CC5)c34)ccc2n1 [Compound P-0167, 8-(3-(2-methoxyquinolin-6-yl)pyrazolo[1,5-a]pyridin-4-yl)-2,8-diazaspiro[4.5]decan-1-one] | 0.1 to 100 nM | 0.1 to 100 nM
8 | CC(C)(C#Cc1cccn2ncc(-c3ccc(-c4cnn(CCC#N)c4)cc3)c12)C(N)=O [Compound P-0005, 4-(3-(4-(1-(2-cyanoethyl)-1H-pyrazol-4-yl)phenyl)pyrazolo[1,5-a]pyridin-4-yl)-2,2-dimethylbut-3-ynamide] | 0.1 to 100 nM | 0.1 to 100 nM
9 | Cc1noc(-c2ccc(-c3cnn4cccc(N5CCC(C#N)CC5)c34)cc2)n1 [Compound P-0366, 1-(3-(4-(3-methyl-1,2,4-oxadiazol-5-yl)phenyl)pyrazolo[1,5-a]pyridin-4-yl)piperidine-4-carbonitrile] | 0.1 to 100 nM | 0.1 to 100 nM
10 | N#CC1CC=C(c2nccn3ncc(-c4ccc(C(N)=O)c(F)c4)c23)CC1 (stereo not shown) [Compound P-0105, 4-(4-(4-cyanocyclohex-1-en-1-yl)pyrazolo[1,5-a]pyrazin-3-yl)-2-fluorobenzamide] | 100 to 1000 nM | 0.1 to 100 nM
11 | Cn1cc(-c2ccc(-c3cnn4cccc(C#CC(C)(C)N)c34)cc2)cn1 [Compound P-0309, 2-methyl-4-(3-(4-(1-methyl-1H-pyrazol-4-yl)phenyl)pyrazolo[1,5-a]pyridin-4-yl)but-3-yn-2-amine] | 100 to 1000 nM | 0.1 to 100 nM
12 | COc1ccc(-c2cnn3ccnc(C4CCC(C#N)CC4)c23)cc1C (stereo not shown) [Compound P-0457, (1s,4s)-4-(3-(4-methoxy-3-methylphenyl)pyrazolo[1,5-a]pyrazin-4-yl)cyclohexane-1-carbonitrile] | 0.1 to 100 nM | 0.1 to 100 nM
13 | Cn1cc(C#Cc2cnc3cccc(N4CCC5(CC4)C(=O)Nc4ccccc45)n23)cn1 [Compound P-0437, 1′-(3-((1-methyl-1H-pyrazol-4-yl)ethynyl)imidazo[1,2-a]pyridin-5-yl)spiro[indoline-3,4′-piperidin]-2-one] | 0.1 to 100 nM | 0.1 to 100 nM
14 | CC(C)(O)C#Cc1cccn2ncc(-c3cnn(-c4ccc(F)cc4)c3)c12 [Compound P-0283, 4-(3-(1-(4-fluorophenyl)-1H-pyrazol-4-yl)pyrazolo[1,5-a]pyridin-4-yl)-2-methylbut-3-yn-2-ol] | 100 to 1000 nM | 100 to 1000 nM
15 | Cn1cc(-c2ccc(-c3cnn4cccc(N5CCC(F)(C#N)CC5)c34)cc2)cn1 [Compound P-0293, 4-fluoro-1-(3-(4-(1-methyl-1H-pyrazol-4-yl)phenyl)pyrazolo[1,5-a]pyridin-4-yl)piperidine-4-carbonitrile] | 1000 to 10000 nM | 0.1 to 100 nM
16 | NC(=O)C1CC=C(c2cccn3ncc(-c4ccc(-n5cccn5)cc4)c23)CC1 (stereo not shown) [Compound P-0197, 4-(3-(4-(1H-pyrazol-1-yl)phenyl)pyrazolo[1,5-a]pyridin-4-yl)cyclohex-3-ene-1-carboxamide] | 100 to 1000 nM | 0.1 to 100 nM

Row | SMILES | IC50 [1] | IC50 [2]
17 | Cn1cc(C#Cc2cnc3[nH]ccc3c2C2=CCC(C#N)CC2)cn1 (stereo not shown) [Compound P-0184, 4-[5-[2-(1-methylpyrazol-4-yl)ethynyl]-H-pyrrolo[2,3-b]pyridin-4-yl]cyclohex-3-ene-1-carbonitrile] | 100 to 1000 nM | 0.1 to 100 nM
18 | CC(=O)C1CCN(c2cccc3ncc(C#Cc4cnn(C)c4)n23)CC1 [Compound P-0240, 1-(1-(3-((1-methyl-1H-pyrazol-4-yl)ethynyl)imidazo[1,2-a]pyridin-5-yl)piperidin-4-yl)ethan-1-one] | 1000 to 10000 nM | 1000 to 10000 nM
19 | CCCS(=O)(=O)Nc1ccc2cc(-c3cnn4cccc(C#CC(C)(C)C(N)=O)c34)ccc2c1 [Compound P-0065, 2,2-dimethyl-4-(3-(6-(propylsulfonamido)naphthalen-2-yl)pyrazolo[1,5-a]pyridin-4-yl)but-2-ynamide] | 100 to 1000 nM | 0.1 to 100 nM
20 | CC(C)(C#Cc1cccn2ncc(-c3ccc4c(cnn4C(F)F)c3)c12)C(=O)O [Compound P-0067, 4-(3-(1-(difluoromethyl)-1H-indazol-5-yl)pyrazolo[1,5-a]pyridin-4-yl)-2,2-dimethylbut-3-ynoic acid] | 0.1 to 100 nM | 100 to 1000 nM
21 | CC(C)(O)Cn1ncc2cc(-c3cnn4ccnc(C5CCC(C#N)CC5)c34)ccc21 (stereo not shown) [Compound P-0062, (1s,4s)-4-(3-(1-(2-hydroxy-2-methylpropyl)-1H-indazol-5-yl)pyrazolo[1,5-a]pyrazin-4-yl)cyclohexane-1-carbonitrile] | 0.1 to 100 nM | 0.1 to 100 nM
22 | Cc1ccc2cc(-c3cnn4cccc(N5CCC6(CCNC6=O)CC5)c34)ccc2n1 [Compound P-0168, 8-(3-(2-methylquinolin-6-yl)pyrazolo[1,5-a]pyridin-4-yl)-2,8-diazaspiro[4.5]decan-1-one] | 0.1 to 100 nM | 0.1 to 100 nM
23 | N#CC1CC=C(c2cccn3ncc(-c4ccc(-n5ccnn5)cc4)c23)CC1 (stereo not shown) [Compound P-0224, 4-(3-(4-(1H-1,2,3-triazol-1-yl)phenyl)pyrazolo[1,5-a]pyridin-4-yl)cyclohex-3-ene-1-carbonitrile] | 0.1 to 100 nM | 0.1 to 100 nM
24 | N#CC1CCN(c2cccn3ncc(-c4ccc(OCC5CCCCO5)cc4)c23)CC1 (stereo not shown) [Compound P-0264, 1-(3-(4-((tetrahydro-2H-pyran-2-yl)methoxy)phenyl)pyrazolo[1,5-a]pyridin-4-yl)piperidine-4-carbonitrile] | 0.1 to 100 nM | 0.1 to 100 nM
25 | N#CC1CC=C(c2nccn3ncc(-c4ccc5c(cnn5C(F)F)c4)c23)CC1 (stereo not shown) [Compound P-0114, 4-(3-(1-(difluoromethyl)-1H-indazol-5-yl)pyrazolo[1,5-a]pyrazin-4-yl)cyclohex-3-ene-1-carbonitrile] | 0.1 to 100 nM | 0.1 to 100 nM
26 | CS(=O)(=O)c1ccc(-c2cnn3cccc(C4=CCC(C#N)CC4)c23)cc1F (stereo not shown) [Compound P-0126, 4-(3-(3-fluoro-4-(methyl-sulfonyl)phenyl)pyrazolo[1,5-a]pyridin-4-yl)cyclohex-3-ene-1-carbonitrile] | 100 to 1000 nM | 0.1 to 100 nM
27 | Cn1cc(C#Cc2cnc3cccc(N4CCC(C(N)=O)C4)n23)cn1 (stereo not shown) [Compound P-0241, 1-(3-((1-methyl-1H-pyrazol-4-yl)ethynyl)imidazo[1,2-a]pyridin-5-yl)pyrrolidine-3-carboxamide] | 100 to 1000 nM | 100 to 1000 nM
28 | Cn1cc(-c2ccc(-c3cnn4cccc(C5=CCC(C(=O)N6CCC6)CC5)c34)cc2)cn1 (stereo not shown) [Compound P-0333, azetidin-1-yl-[4-[3-[4-(1-methylpyrazol-4-yl)phenyl]pyrazolo[1,5-a]pyridin-4-yl]cyclohex-3-en-1-yl]methanone] | 100 to 1000 nM | 100 to 1000 nM
29 | Cc1ccc2cc(-c3cnn4ccnc(C5=CCC(C#N)CC5)c34)ccc2n1 (stereo not shown) [Compound P-0186, 4-(3-(2-methylquinolin-6-yl)pyrazolo[1,5-a]pyrazin-4-yl)cyclohex-3-ene-1-carbonitrile] | 0.1 to 100 nM | 0.1 to 100 nM
30 | CC(C)(C#Cc1cccn2ncc(-c3ccc4c(cnn4C(F)F)c3)c12)C(N)=O [Compound P-0068, 4-(3-(1-(difluoromethyl)-1H-indazol-5-yl)pyrazolo[1,5-a]pyridin-4-yl)-2,2-dimethylbut-3-ynamide] | 0.1 to 100 nM | 0.1 to 100 nM
31 | Cn1cc(-c2ccc(-c3cnn4cccc(N5CCC6(CCNC6=O)CC5)c34)cc2)cn1 [Compound P-0170, 8-(3-(4-(1-methyl-1H-pyrazol-4-yl)phenyl)pyrazolo[1,5-a]pyridin-4-yl)-2,8-diazaspiro[4.5]decan-1-one] | 0.1 to 100 nM | 0.1 to 100 nM
32 | CCCS(=O)(=O)Nc1ccc2cc(-c3cnn4ccnc(C#CC(C)(C)C(N)=O)c34)ccc2c1 [Compound P-0069, 2,2-dimethyl-4-(3-(6-(propylsulfonamido)naphthalen-2-yl)pyrazolo[1,5-a]pyrazin-4-yl)but-3-ynamide] | 0.1 to 100 nM | 0.1 to 100 nM
